The results in this text go back to PubChem BioAssay (NCI).

Where “and” joins values, the source holds several entries; their conditions need not be identical. Equal entries are not always repeated.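 Values below derive from 48-hour exposures of cells grown in 96-well plates, with endpoints linearly interpolated between the two concentrations bracketing the appropriate inhibition level. Abbreviation: GI50, concentration required for 50% inhibition of growth. At the TGI there is no net growth.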

Some test systems named below: OVCAR-5 ovarian; OVCAR-4 ovarian; U251 CNS; HS 578T breast; HT29 colon; RXF 393 renal; NCI-H226 lung; HCT-15 colon; A498 renal; OVCAR-3 ovarian.
Holding throughout (assay): DTP human tumour cell line panel, 48 h

For `COc1ccc(Cl)cc1NC(=O)c1cccc([N+](=O)[O-])c1O`, the TGI in the experiment on OVCAR-5 ovarian was over 100 µM; in the experiment with OVCAR-4 ovarian, over 88.3 µM; in the experiment with U251 CNS, over 62.7 µM; with HS 578T breast, 70.2 µM; in the experiment on HT29 colon, over 95.6 µM; with RXF 393 renal, 53.2 µM. Besides, the TGI in the experiment on NCI-H226 lung was 64.9 µM; with HCT-15 colon it was over 100 µM; in the experiment with A498 renal it was 35.4 µM; with OVCAR-3 ovarian it was 33 µM.

For the compound `CC(=O)OC1CCC2(C)C(=CCC3C4CCC5(OC6CC(C)CN(C(C)=O)C6C5C)C(C)=C4C(=O)C32)C1` (centres undefined), the TGI in the experiment on OVCAR-5 ovarian was 46.6 µM; in the experiment with OVCAR-4 ovarian, 61.4 µM; in the experiment on U251 CNS, 30.8 µM; with HS 578T breast, 31.4 µM; with HT29 colon, 43.8 µM; with RXF 393 renal it was 32.2 µM. Moreover, the TGI was 45.8 µM in the experiment on NCI-H226 lung, 33.6 µM with HCT-15 colon, 31.2 µM in the experiment on A498 renal and 72.6 µM in the experiment with OVCAR-3 ovarian.

Turning to `O=C(NNS(=O)(=O)c1ccc(F)cc1)c1cccnc1Nc1ccc(Cl)cc1Cl`, the GI50 with OVCAR-5 ovarian is 52.2 µM; in the experiment on OVCAR-4 ovarian, 38 µM; in the experiment on U251 CNS, 29.1 µM; in the experiment on HS 578T breast, 27.9 µM; in the experiment with HT29 colon, 22.1 µM; in the experiment with RXF 393 renal, 11.4 µM. Further, the GI50 with NCI-H226 lung is 29.6 µM; with HCT-15 colon, 26.8 µM; with A498 renal, 17.3 µM; in the experiment on OVCAR-3 ovarian, 29.7 µM. Further, the TGI is over 100 µM with OVCAR-5 ovarian; over 100 µM in the experiment with OVCAR-4 ovarian; over 100 µM in the experiment on U251 CNS; over 100 µM in the experiment with HS 578T breast; 57.8 µM in the experiment with HT29 colon; 27.6 µM in the experiment with RXF 393 renal. Further, the TGI came out at 96.9 µM with NCI-H226 lung, 83.5 µM in the experiment with HCT-15 colon, 36.5 µM in the experiment on A498 renal and 94.5 µM in the experiment on OVCAR-3 ovarian.

On to `COc1ccc(C(=O)COc2cccc(/C=C3\CSc4ccc(Cl)cc4C3=O)c2)cc1`, for which the GI50 in the experiment on OVCAR-5 ovarian was 17 µM; in the experiment with OVCAR-4 ovarian, 11.7 µM; with U251 CNS, 2.13 µM; with HS 578T breast, 3.55 µM; with HT29 colon it was 3.32 µM; with RXF 393 renal, 1.14 µM. Also, the GI50 in the experiment on NCI-H226 lung was 14.4 µM; in the experiment on HCT-15 colon it was 1.83 µM; in the experiment on A498 renal, 36.5 µM; in the experiment with OVCAR-3 ovarian it was 8.86 µM. The concentration for total growth inhibition (TGI) in the experiment with OVCAR-5 ovarian was 34.2 µM; in the experiment on OVCAR-4 ovarian, 28.4 µM; with U251 CNS it was 4.59 µM; in the experiment on HS 578T breast it was 31.7 µM; with HT29 colon it was 11.4 µM; in the experiment with RXF 393 renal, 7.1 µM. Moreover, the TGI in the experiment with NCI-H226 lung is 62.8 µM; with HCT-15 colon, 4.36 µM; in the experiment with A498 renal it was over 100 µM; in the experiment on OVCAR-3 ovarian, 21.2 µM.

Regarding `CC(C)(C)[Si](C)(C)OCC1C=CC(n2cnc3c(N)ncnc32)O1` (centres undefined), the TGI was over 100 µM with OVCAR-5 ovarian; over 100 µM with OVCAR-4 ovarian; 72.3 µM with U251 CNS; over 100 µM in the experiment with HS 578T breast; over 100 µM with HT29 colon; 73 µM with RXF 393 renal. For the same compound, the TGI with NCI-H226 lung was over 69.6 µM; in the experiment on HCT-15 colon it was over 100 µM; in the experiment with A498 renal it was over 100 µM; with OVCAR-3 ovarian, over 67.9 µM.

As for `CO[C@@]12C[C@H]3[C@@H]([C@@H](O)[C@@H](OC(=O)/C=C/c4ccccc4)[C@@]4(O)C(C)(C)CCC[C@]34C)[C@@H](C)C1=CC(=O)O2`, the GI50 in the experiment on OVCAR-5 ovarian was 17.1 µM; in the experiment with OVCAR-4 ovarian, 5.03 µM; with U251 CNS, 3.29 µM; in the experiment on HS 578T breast, 7.8 µM; in the experiment with HT29 colon, 4.6 µM; in the experiment with RXF 393 renal it was 1.33 µM. Also, the GI50 was 4.76 µM in the experiment with NCI-H226 lung, 4.51 µM in the experiment with HCT-15 colon, 11.3 µM in the experiment on A498 renal and 2.01 µM with OVCAR-3 ovarian. The TGI in the experiment with OVCAR-5 ovarian came out at 48 µM; in the experiment on OVCAR-4 ovarian, 30.4 µM; in the experiment with U251 CNS, 13.7 µM; in the experiment with HS 578T breast it was 29.3 µM; in the experiment on HT29 colon, 26.5 µM; in the experiment with RXF 393 renal it was 7.93 µM. Further, the TGI in the experiment on NCI-H226 lung came to 18.8 µM; in the experiment on HCT-15 colon it was 19.2 µM; in the experiment with A498 renal it was 26.3 µM; in the experiment with OVCAR-3 ovarian it was 11.6 µM.

On to `Cc1cc(C)cc(Nc2ccc([N+](=O)[O-])c(NCCN3CCOCC3)n2)c1`, for which the GI50 in the experiment on OVCAR-5 ovarian was 0.0576 µM and 0.0361 µM; with OVCAR-4 ovarian it was 0.002 µM; with HS 578T breast, 0.00306 µM and 0.0165 µM; in the experiment with HT29 colon, 0.00219 µM and 0.0188 µM; in the experiment on RXF 393 renal, 0.0208 µM; in the experiment on NCI-H226 lung it was 0.0365 µM and 0.0614 µM. The GI50 was 0.000928 µM in the experiment on HCT-15 colon, 0.000606 µM with A498 renal and 0.000367 µM with OVCAR-3 ovarian. The concentration for total growth inhibition (TGI) in the experiment on OVCAR-5 ovarian was over 100 µM; with OVCAR-4 ovarian it was over 100 µM; in the experiment with U251 CNS, over 100 µM; in the experiment with HS 578T breast, 48.4 µM; in the experiment with HT29 colon, over 100 µM; with RXF 393 renal it was 48.8 µM. Moreover, the concentration for total growth inhibition (TGI) was over 100 µM in the experiment on NCI-H226 lung; over 100 µM in the experiment with HCT-15 colon; 0.00915 µM and 0.0676 µM in the experiment on A498 renal; 0.00192 µM in the experiment with OVCAR-3 ovarian.

Take `O=C(O)c1cc(Cc2ccc(O)c(C(=O)O)c2)ccc1O` (tested in a mixture with another compound): the GI50 with OVCAR-5 ovarian is 11.5 µM; in the experiment with OVCAR-4 ovarian, 6.08 µM; in the experiment with U251 CNS it was 9.44 µM; with HS 578T breast, 3.78 µM; in the experiment on HT29 colon it was 2.98 µM; in the experiment on RXF 393 renal it was 0.25 µM. In addition, the GI50 was 7.29 µM with NCI-H226 lung, 3.35 µM with HCT-15 colon, 5.68 µM in the experiment on A498 renal and 9.75 µM in the experiment with OVCAR-3 ovarian. The TGI with OVCAR-5 ovarian came to 27.1 µM; in the experiment on OVCAR-4 ovarian, 29.2 µM; with U251 CNS, 27.7 µM; in the experiment on HS 578T breast it was 40.4 µM; in the experiment with HT29 colon, 10.4 µM; in the experiment on RXF 393 renal, 1.37 µM. Moreover, the TGI in the experiment on NCI-H226 lung was determined as 23.3 µM; with HCT-15 colon it was 17 µM; with A498 renal, 21.9 µM; in the experiment with OVCAR-3 ovarian, 22.3 µM.

Regarding `NCCP(=O)(O)O`, the TGI with OVCAR-5 ovarian, with OVCAR-4 ovarian, in the experiment on U251 CNS, in the experiment on HS 578T breast, with HT29 colon and with RXF 393 renal was over 100 µM in each case. The TGI in the experiment with NCI-H226 lung, in the experiment with HCT-15 colon, in the experiment with A498 renal and with OVCAR-3 ovarian was over 100 µM each time.
